Laboratory results as given in PubChem BioAssay AID588780 (Sanford-Burnham Center for Chemical Genomics, 2011).
Active and inactive are the calls of the source.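 Rule for the calls: active = compounds whose fitted half-maximal concentration in the cell-protection dose series is at or below a set limit; inactive = the rest.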

Each molecule was assayed on H9c2 cardiomyocytes, 2-deoxyglucose stress, ATP luminescence, 2 h (assay: H9c2 cell survival under 2-deoxyglucose stress – uHTS hits, dose response (AID 588780)).

| Structure (SMILES) | IC50 |
| --- | --- |
| O=C(O)c1nn(CC(=O)N2CCN(c3ccccc3)CC2)c(=O)c2ccccc12 | > 79 µM (inactive) |
| COc1ccc(N(C(=O)c2cccnc2)S(=O)(=O)c2cccs2)cc1 | > 79 µM (inactive) |
| CC1(c2ccccc2)NC(=O)N(CC(=O)Nc2cccc(/C=C/c3ccccn3)c2)C1=O (stereo unspecified) | 19 µM |
| CCc1nnc(NC(=O)CSc2nnc(CNc3ccc(OC)cc3)n2C)s1 | > 79 µM (inactive) |
| COc1ccc(-n2cc(-c3ccccc3)c3c(N4CCOCC4)ncnc32)cc1 | > 79 µM (inactive) |
| COc1ccc(/C=N\NC(=O)c2c(C)nc3ccc(Br)cn23)cc1 | > 79 µM (inactive) |
| COc1cc(/C=N/NC(=O)NC23CC4CC(CC(C4)C2)C3)ccc1OCC(N)=O | > 79 µM (inactive) |
| CC(C)(C)c1ccc(OCCCC(=O)NNC(=O)c2ccccc2O)cc1 | > 79 µM (inactive) |
| CNC(=O)COC(=O)/C=C/c1cn(-c2ccccc2)nc1-c1ccc(C)o1 | 11.6 µM |
| COc1cc(NC(=O)c2cc3nc(-c4ccccc4)cc(-c4ccccc4)n3n2)cc(OC)c1OC | > 79 µM (inactive) |
| COc1cccc(-c2nnc(NC(=O)c3ccc(Cl)s3)o2)c1 | > 79 µM (inactive) |
| Cc1ccccc1NC(=O)COc1cccc2c1CCNC2=O | > 79 µM (inactive) |
| Cn1c(C(=O)NCCc2ccsc2)cc2c(=O)n(C)c3ccccc3c21 | > 79 µM (inactive) |
| O=c1[nH]cnc2sc3c(c12)CCC3 | > 79 µM (inactive) |
| COc1cc(NC(=O)c2cc3ccccc3cc2OC)ccc1NC(=O)c1cccs1 | > 79 µM (inactive) |
| CCn1cc(C(=O)Nc2cccc(NC(C)=O)c2)c2cc(OC)c(OC)cc2c1=O | > 79 µM (inactive) |
| COc1cc(/C=N/NC(=O)c2cccnc2)ccc1OS(=O)(=O)c1ccc(F)cc1 | 14.1 µM |
| Brc1cc2c(cc1/C=N/Nc1nc(N3CCCC3)nc(N3CCOCC3)n1)OCO2 | > 79 µM (inactive) |
| COc1ccc(CC(=O)N/N=C(\C)c2ccccn2)cc1 | 26.7 µM |
| COc1ccc(C(=O)COC(=O)Cc2n[nH]c(=O)c3ccccc23)c(OC)c1 | > 79 µM (inactive) |
| O=C(Nc1cccc(-c2nc3cccnc3s2)c1)c1ccco1 | > 79 µM (inactive) |
| COc1ccc(Cl)cc1NC(=O)CN(C)C(=O)Cc1n[nH]c(=O)c2ccccc12 | > 79 µM (inactive) |
| CC(=O)Nc1cccc(-c2cc(NC(C)=O)c3ncc(-c4cccc(C(C)=O)c4)n3c2)c1 | > 79 µM (inactive) |
| CCc1cc2cccc(C)c2nc1SCC(=O)N1CCN(C(=O)c2ccco2)CC1 | > 79 µM (inactive) |

| Structure (SMILES) | IC50 |
| --- | --- |
| c1ccc2c(c1)nc(Nc1ccc3c(c1)OCO3)c1nnnn12 | 16.9 µM |
| c1ccc(-c2oc3ncnc(NCCN4CCOCC4)c3c2-c2ccccc2)cc1 | 23.2 µM |
| COc1ccc(-n2nc(C(=O)NCC(=O)Nc3cc(OC)c(OC)c(OC)c3)c3ccccc3c2=O)cc1Cl | > 79 µM (inactive) |
| COc1ccc(C(=O)NN/C=C/C(=O)c2ccc(Br)cc2)cc1 | > 79 µM (inactive) |
| CN(CC1COc2ccccc2O1)c1nc(-c2cccnc2)nc2ccccc12 (stereo unspecified) | > 79 µM (inactive) |
| O=C(c1cc(-c2cccnc2)nc2ccc(Br)cc12)N1CCN(c2ncccn2)CC1 | 9.44 µM |
| C/C(=N\NC(=O)c1cccnc1)c1ccc(OC2OCCOC2Oc2ccc(/C(C)=N/NC(=O)c3cccnc3)cc2)cc1 (stereo unspecified) | 13.1 µM |
| COc1ccc(-c2nnc(-c3cc(OC)c(OC)c(OC)c3)o2)cc1OC | 14.6 µM |
| CCCCOc1ccc(C(=O)N/C(=C\c2ccc(OC)cc2)C(=O)OCc2ccco2)cc1 | > 79 µM (inactive) |
| Cc1noc(C)c1COC(=O)COc1ccc2c(C)cc(=O)oc2c1 | > 79 µM (inactive) |
| CC(C)c1cc(N2CCN(C(=O)c3ccco3)CC2)n2c(nc3ccccc32)c1C#N | 28.5 µM |
| COc1ccc2[nH]c(=O)c(CN(Cc3nnnn3Cc3ccccc3)CC3CCCO3)cc2c1 (stereo unspecified) | > 79 µM (inactive) |
| COc1ccccc1NC(=O)c1cc(-c2cc(OC)c(OC)c(OC)c2)nc2ccccc12 | > 79 µM (inactive) |
| COc1ccc(-c2cc(=O)oc3cc(OC(=O)C4CCCCC4)ccc23)cc1 | 31.7 µM (inactive) |
| CC(=O)Oc1ccc(C(=O)OCC(=O)c2c(N)n(C)c(=O)n(C)c2=O)cc1OC(C)=O | 31.8 µM (inactive) |
| CCN(CC)c1ccc(C(=O)NNC(=O)CCc2nc3ccccc3c(=O)[nH]2)cc1 | > 79 µM (inactive) |
| COc1cc(C(=O)Nc2ccc(NC(=O)c3ccco3)nc2)cc(OC)c1OC | 53.5 µM (inactive) |
| COc1ccc(-c2cc(NC=O)c3ncc(-c4ccc(C(C)=O)cc4)n3c2)cn1 | > 79 µM (inactive) |
| COC(=O)c1[nH]c2cc(OC)c(OC)cc2c1/C=N/Nc1ccccc1 | > 79 µM (inactive) |
| CC(=O)Nc1cc(-c2cccc(NS(C)(=O)=O)c2)cn2c(-c3cccc(C(C)=O)c3)cnc12 | > 79 µM (inactive) |
| O=C(COc1cccc2c1CCNC2=O)Nc1cccc(F)c1 | 28 µM |
| O=c1cc(CN2CCN(S(=O)(=O)c3cccc(Cl)c3)CC2)c2ccc(O)cc2o1 | > 79 µM (inactive) |
| O=c1[nH]nc(-c2ccc(NCCCO)c([N+](=O)[O-])c2)c2ccccc12 | > 79 µM (inactive) |
| CCN(CC)c1ccc(C2C(C(=O)OC(C)C)C(=O)CC(C)(O)C2C(=O)OC(C)C)cc1 (stereo unspecified) | 18.2 µM |

| Structure (SMILES) | IC50 |
| --- | --- |
| Cc1cccc(C)c1OCCn1nc(C(=O)O)c2ccccc2c1=O | 10.8 µM |
| O=C(CCn1nc(-c2ccccc2)c2ccccc2c1=O)N1CCN(c2ccccc2)CC1 | > 79 µM (inactive) |
| CCOc1ncccc1C(=O)Nc1cccc(-c2nc3cccnc3s2)c1 | > 79 µM (inactive) |
| COc1ccc(-n2c(C)c(C(C)=O)c3cc(OC(C)=O)ccc32)cc1 | 25.2 µM |
| COc1ccc(Br)cc1/C=N/NC(=O)CNC(=O)/C=C/c1ccccc1 | > 79 µM (inactive) |
| Cc1cc(Cl)ccc1OCCCC(=O)NNC(=O)c1ccccc1O | > 79 µM (inactive) |
| O=C(Cn1[nH]c(=O)c2ccccc2c1=O)OCC(=O)N1CCCc2ccccc21 | 51.3 µM (inactive) |
| O=C(CCc1nc2ccccc2c(=O)[nH]1)NCC(=O)Nc1ccc(F)c(F)c1 | > 79 µM (inactive) |
| CC(C)=NNc1cnnc2ccc([N+](=O)[O-])cc12 | 12.2 µM |
| Cc1ccc2c(c1)CCCN2C(=O)CCc1nc2ccccc2c(=O)[nH]1 | 9.06 µM |
| O=c1[nH]c2cccc(F)c2n2cccc12 | 8.05 µM |
| COc1ccc(Cl)cc1NC(=O)CN(C)C(=O)CCc1nc2ccccc2c(=O)[nH]1 | > 79 µM (inactive) |
| Cc1cc2ccccc2c(=O)[nH]1 | 7.23 µM |
| COC(=O)c1ccc(OCC(=O)Nc2ccccc2C(=O)NC2CC2)cc1 | 10.6 µM |
| COc1ccc2cc3cc(C(=O)NCCc4ccc(OC)c(OC)c4)oc3nc2c1 | 7.71 µM |
| CCCCc1nc2sc3c(c2c(=O)[nH]1)CCC3 | > 79 µM (inactive) |
| CN(C(=O)c1sc2nc(N3CCOCC3)c3c(c2c1N)CCCC3)c1ccccc1 | 5.73 µM |
| COc1cc(-c2cc(C(=O)Nc3cccc(C(C)=O)c3)c3ccccc3n2)cc(OC)c1OC | > 79 µM (inactive) |
| Nc1ccc2nc(-c3cccs3)[nH]c2c1 | > 79 µM (inactive) |
| O=C(CCc1nc2ccccc2c(=O)[nH]1)OCCOc1ccc(Cl)cc1 | 31.3 µM (inactive) |
| CCOC(=O)C1CCCN(C(=O)CCC(=O)Nc2ccc3nc(N4CCOCC4)cc(C)c3c2)C1 (stereo unspecified) | 11 µM |
| N#C/C(=C\Nc1ccc2c(c1)OCCO2)c1nc2ccccc2[nH]1 | > 79 µM (inactive) |
| O=C(CC(C(=O)c1ccccc1)c1ccccc1)c1ccccc1 (stereo unspecified) | 12.6 µM |
| CCN(CC)CCNC(=O)CCc1n[nH]c(=O)c2ccccc12 | > 79 µM (inactive) |

| Structure (SMILES) | IC50 |
| --- | --- |
| CCc1nc2ccc(C(=O)Nc3cc(-c4ccccc4)ccc3OC)cn2c1N(C)Cc1nccs1 | 9.62 µM |
| CCOC(=O)C1=C(C)NC(C)=C(C(=O)OCCNC(=O)c2cccnc2)C1c1cccc([N+](=O)[O-])c1 (stereo unspecified) | 28.6 µM |
| COc1ccc(-c2cc(C(F)(F)F)n3nc(C(=O)N4CCN(C(=O)c5ccco5)CC4)cc3n2)cc1 | > 79 µM (inactive) |
| O=C(Nc1cccnc1)c1sc(Nc2ccccc2)nc1-c1ccccc1 | > 79 µM (inactive) |
| CCN1C(=O)/C(=C/c2nc3ccccc3c(=O)n2-c2ccccc2)c2ccccc21 | > 79 µM (inactive) |
| Cc1nn(-c2ccccc2)c(C)c1/C=N/NC(=O)c1cc(C(C)(C)C)[nH]n1 | 32.1 µM (inactive) |
| Cc1cc(CNC(=O)COC(=O)Cn2[nH]c(=O)c3ccccc3c2=O)cc(C)c1O | 15.4 µM |
| CCOCCCNC(=O)CCC(=O)NNc1nc2ccccc2c2nc(-c3ccccc3)nn12 | 54 µM (inactive) |
| CCOc1ccc(C(=O)Nc2cccc(-c3nc4cccnc4o3)c2)cc1Cl | 32.2 µM (inactive) |
| CCn1nc(C(=O)OCC(=O)c2c[nH]c3ccccc23)c2ccccc2c1=O | 11.6 µM |
| O=C(CSc1nc2ccccc2c(=O)[nH]1)N1CCOCC1 | > 79 µM (inactive) |
| CN(C)S(=O)(=O)c1ccc2[nH]cc(/C=C/c3nc4ccccc4c(=O)n3-c3ccccc3)c2c1 | > 79 µM (inactive) |
| Cn1c(/C=N/NC(=O)c2ccccc2)nc2ccccc21 | > 79 µM (inactive) |
| O=C(NO)c1ccc(C(=O)N(C2CCCCC2)C2CCCCC2)cc1 | > 79 µM (inactive) |
| O=C(CNC(=O)c1[nH]cnc1C(=O)NC(c1ccccc1)c1ccccc1)OCc1ccccc1 | 13.1 µM |
| COC(=O)c1ccc(C(=O)OC)c(NC(=O)COC(=O)C23CC4CC(CC(O)(C4)C2)C3)c1 | 9.67 µM |
| CCn1ncc2c1C(=O)NC1c3ccccc3C(=O)N21 (stereo unspecified) | > 79 µM (inactive) |
| CSCCC(NS(=O)(=O)c1ccccc1)C(=O)OCc1cc(=O)oc2cc(O)ccc12 (stereo unspecified) | > 79 µM (inactive) |
| O=C(Nc1ccccc1C(=O)Nc1ccccc1C(=O)NCc1ccco1)c1ccco1 | 8.02 µM |
| COc1ccc(S(=O)(=O)N(CCCN2CCCC2=O)Cc2cc3cc(C)c(C)cc3[nH]c2=O)cc1 | 26.9 µM |
| CCOC(=O)N1CCC(N2C(=O)c3ccccc3C2Nc2cc(OC)c(OC)c(OC)c2)CC1 (stereo unspecified) | > 79 µM (inactive) |
| Cc1cc(C)c(S(=O)(=O)N2CCN(C(=O)c3cc(=O)[nH]c4ccccc34)CC2)c(C)c1 | 19.3 µM |
| C[C@@H]1CN([C@@H](C)CO)C(=O)c2cc(NC(=O)Nc3ccccc3)ccc2O[C@H]1CN(C)C(=O)Nc1cccc2ccccc12 | 15.8 µM |
| COc1cccc(NC(=O)CN(C)C(=O)Cc2n[nH]c(=O)c3ccccc23)c1 | > 79 µM (inactive) |
